# Assay results taken from US20170150719A1, “FUNGICIDAL PYRAZOLES AND THEIR MIXTURES” (E I DU PONT DE NEMOURS AND COMPANY, priority 2010, published 2017).
# Assays:
# [1] = system: Alternaria solani; experiment: Test B: tomato early blight, preventive spray on tomato seedlings, visual disease rating; conditions: Alternaria solani, in Solanum lycopersicum, read-out: Test B rating (disease control)
# [2] = system: Phytophthora infestans; experiment: whole plant or invertebrate; type: in vivo; conditions: Phytophthora infestans, in Solanum lycopersicum, read-out: Test C rating (disease control)
# [3] = system: Blumeria graminis f. sp. tritici; experiment: Test I: wheat powdery mildew, preventive spray on wheat seedlings, visual disease rating; conditions: Blumeria graminis, in Triticum aestivum, read-out: Test I rating (disease control), wheat powdery mildew; 100 = 100% disease control, 0 = no disease control relative to the controls
# Experimental: General protocol for preparing test suspensions for Tests A-I: the test compounds were first dissolved in acetone in an amount equal to 3% of the final volume and then suspended at the desired concentration (in ppm) in acetone and purified water (50/50 mix by volume) containing 250 ppm of the surfactant Trem® 014 (polyhydric alcohol esters). The resulting test suspensions were then used in Tests A-I. Each test was conducted in triplicate, and the results were averaged. Spraying a 200 ppm test suspension to the point of run-off on the test plants was the equivalent of a rate of about 800 g/ha. Unless otherwise indicated, the rating values indicate a 200 ppm test suspension was used. (An asterisk “*” next to the rating value indicates a 40 ppm test suspension was used.)
# The test suspension was sprayed to the point of run-off on wheat seedlings. The following day the seedlings were inoculated with a spore dust of Blumeria graminis f. sp. tritici (also known as Erysiphe graminis f. sp. tritici, the causal agent of wheat powdery mildew) and incubated in a growth chamber at 20° C. for 8 days, after which time visual disease ratings were made.
# [4] = system: Septoria tritici; experiment: Test M (M1-M5): wheat leaf blotch, Compound 81 alone and in mixtures, observed and Colby expected control; type: in vivo
compound,measurement,setting,value
"Cc1nn(C)c(Nc2c(F)cc(Cl)cc2F)c1-c1ccc(F)cc1Cl [Compound 81, N-(4-chloro-2,6-difluorophenyl)-4-(2-chloro-4-fluorophenyl)-1,3-dimethyl-1H-pyrazole-5-amine]",pest or weed control at 200 µg/mL,[1],99%
same,pest or weed control at 200 µg/mL,[2],0%
same,pest or weed control at 200 µg/mL,[3],100%
same,"Test M1 Obsd, disease control rating",[4]; Compound 81 0.01 ppm alone,0%
same,"Test M2 Obsd, disease control rating",[4]; Compound 81 0.01 ppm alone,0%
same,"Test M1 Obsd, disease control rating",[4]; Compound 81 0.1 ppm alone,0%
same,"Test M2 Obsd, disease control rating",[4]; Compound 81 0.1 ppm alone,0%
same,"Test M1 Obsd, disease control rating",[4]; Compound 81 1 ppm alone,86%
same,"Test M2 Obsd, disease control rating",[4]; Compound 81 1 ppm alone,95%
same,"Test M1 Obsd, disease control rating",[4]; Compound 81 10 ppm alone,100%
same,"Test M2 Obsd, disease control rating",[4]; Compound 81 10 ppm alone,100%
same,Test M3 Obsd disease control rating,[4]; Compound 81 alone 0.01 ppm,0%
same,Test M4 Obsd disease control rating,[4]; Compound 81 alone 0.01 ppm,0%
same,Test M5 Obsd disease control rating,[4]; Compound 81 alone 0.01 ppm,0%
same,Test M3 Obsd disease control rating,[4]; Compound 81 alone 0.1 ppm,0%
same,Test M4 Obsd disease control rating,[4]; Compound 81 alone 0.1 ppm,23%
same,Test M5 Obsd disease control rating,[4]; Compound 81 alone 0.1 ppm,3%
same,Test M3 Obsd disease control rating,[4]; Compound 81 alone 1 ppm,52%
same,Test M4 Obsd disease control rating,[4]; Compound 81 alone 1 ppm,66%
same,Test M5 Obsd disease control rating,[4]; Compound 81 alone 1 ppm,90%
same,Test M3 Obsd disease control rating,[4]; Compound 81 alone 10 ppm,100%
same,Test M4 Obsd disease control rating,[4]; Compound 81 alone 10 ppm,100%
same,Test M5 Obsd disease control rating,[4]; Compound 81 alone 10 ppm,100%
